In patent US4906623A, “3-Imidazolium cephalosporin derivatives” (Otsuka Kagaku Kabushiki Kaisha, priority 1985, dated 1990):
Values after ≈ are worked out from the molar mass of the structure shown. Read-outs that look alike come from different tables or passages of the source.

What was measured:
Assay in all cases: in vitro anti-bacterial activity, two-fold agar plate dilution method
Type in all cases: cell-based
Proteus mirabilis = tested on: Proteus mirabilis
Description: (§1) The agent for preventing and treating bacterial infections was tested for in vitro anti-bacterial activity by the following two-fold agar plate dilution method. Each test strain was incubated for 20 hours in a bouillon for measuring sensitivity to obtain a test culture (containing about […]). Portions of sensitivity measuring agar medium containing varying concentrations of the antibacterial agent were each innoculated with a 0.005 ml portion of the culture, followed by incubation at 37° C. for 20 hours. The minimum growth inhibitory concentration (MIC) in μg/ml was then determined.
(§2) MIC=minimum inhibitory concentration

[1] = tested on: Escherichia coli NIHJ-JC2
Description: as §1, §2

[2] = tested on: Escherichia coli CSH(RE45); details: 37° C., 20 hours
Description: as §1, §2

[3] = tested on: Staphylococcus aureus 209P
Description: as §1, §2

Pseudomonas cepacia = details: 37° C., 20 hours
Description: as §1, §2

Pseudomonas aeruginosa = tested on: Pseudomonas aeruginosa
Description: as §1, §2

Serratia marcescens = tested on: Serratia marcescens
Description: as §1, §2

Proteus vulgaris = tested on: Proteus vulgaris
Description: as §1, §2

Klebsiella pneumoniae = tested on: Klebsiella pneumoniae
Description: as §1, §2

[4] = agar dilution, 37° C., 20 hours
[5] = Escherichia coli NIHJ-JC2, agar dilution, 37° C., 20 hours
[6] = Staphylococcus aureus 209P, agar dilution, 37° C., 20 hours
[7] = agar dilution, 37° C., 20 hours, read-out: MIC
[8] = NIHJJC2, Escherichia coli NIHJ-JC2, agar dilution, 37° C., 20 hours, read-out: MIC
[9] = Staphylococcus aureus 209P, agar dilution, 37° C., 20 hours, read-out: MIC
[10] = Burkholderia cepacia, read-out: MIC

Molecule	MIC (Proteus mirabilis; [7]) [µg/mL]	MIC [1, 8] [µg/mL]	MIC ([2]; read-out: MIC) [µg/mL]	MIC [3, 9] [µg/mL]	MIC (Pseudomonas cepacia; [10]) [µg/mL]	MIC (Pseudomonas aeruginosa; [7]) [µg/mL]	MIC (Serratia marcescens; [7]) [µg/mL]	MIC (Proteus vulgaris; [7]) [µg/mL]	MIC (Proteus mirabilis; 20 h) [µg/mL]	MIC (Serratia marcescens; 20 h) [µg/mL]	MIC (Proteus vulgaris; 20 h) [µg/mL]	MIC (Klebsiella pneumoniae; 20 h) [µg/mL]	other results
7-{2-(2-aminothiazole-4-yl)-2-[potassium(2,2-dimethylacetate)oxyimino]acetamide}-3-(3-acetophenyl-1-imidazoliomethyl)-3-cephem-4-carboxylate	–	–	–	–	–	–	–	–	–	–	–	–	MIC (Proteus mirabilis; [4]): 0.2 µg/mL; MIC [1, 5]: 0.39 µg/mL; MIC [2]: 0.2 µg/mL; MIC [3, 6]: 6.25 µg/mL; MIC (Pseudomonas cepacia): 25 µg/mL; MIC (Pseudomonas aeruginosa; [4]): 12.5 µg/mL; MIC (Serratia marcescens; [4]): 1.56 µg/mL; MIC (Proteus vulgaris; [4]): 0.2 µg/mL; MIC (Klebsiella pneumoniae; [4]): 1.56 µg/mL
C=CCON=C(C(=O)NC1C(=O)N2C(C(=O)[O-])=C(Cn3cc[n+](CC(=O)c4ccccc4)c3)CSC12)c1csc(N)n1 (stereo not drawn) [B, 7-[2-(2-aminothiazole-4-yl)-2-(2-propenyloxyimino)acetamide]-3-(3-acetophenyl-1-imidazoliomethyl)-3-cephem-4-carboxylate]	–	–	–	–	–	–	–	–	–	–	–	–	MIC (Proteus mirabilis; [4]): 0.78 µg/mL (≈ 1.28 µM); MIC [1, 5]: 0.39 µg/mL (≈ 0.642 µM); MIC [2]: 0.10 µg/mL (≈ 0.165 µM); MIC [3, 6]: 0.20 µg/mL (≈ 0.329 µM); MIC (Pseudomonas cepacia): 1.56 µg/mL (≈ 2.57 µM); MIC (Pseudomonas aeruginosa; [4]): 6.25 µg/mL (≈ 10.3 µM); MIC (Serratia marcescens; [4]): 1.56 µg/mL (≈ 2.57 µM); MIC (Proteus vulgaris; [4]): 0.78 µg/mL (≈ 1.28 µM); MIC (Klebsiella pneumoniae; [4]): 0.39 µg/mL (≈ 0.642 µM)
C=CCO/N=C(\C(=O)NC1C(=O)N2C(C(=O)[O-])=C(C[n+]3ccn(-c4ccc(O)cc4)c3)CSC12)c1csc(N)n1 (stereo not drawn) [C, 7-[2-(2-aminothiazole-4-yl)-2-(2-propenyloxyimino)acetamide]-3-[3-(4-hydroxyphenyl)-1-imidazoliomethyl]-3-cephem-4-carboxylate]	0.78 (≈ 1.34 µM)	0.39 (≈ 0.671 µM)	0.2 (≈ 0.344 µM)	0.39 (≈ 0.671 µM)	6.25 (≈ 10.7 µM)	12.5 (≈ 21.5 µM)	3.12 (≈ 5.36 µM)	0.78 (≈ 1.34 µM)	–	–	–	–	MIC (Klebsiella pneumoniae; [7]): 0.78 µg/mL (≈ 1.34 µM)
C=CCO/N=C(\C(=O)NC1C(=O)N2C(C(=O)[O-])=C(C[n+]3ccn(CC=C)c3)CSC12)c1csc(N)n1 (stereo not drawn) [Compound A, 7-[2-(2-aminothiazole-4-yl)-2-(2-propenyloxyimino)acetamide]-3-[3-(2-propenyl)-1-imidazoliomethyl]-3-cephem-4-carboxylate]	–	0.78 (≈ 1.47 µM)	0.39 (≈ 0.736 µM)	0.78 (≈ 1.47 µM)	6.25 (≈ 11.8 µM)	6.25 (≈ 11.8 µM)	–	–	3.13 (≈ 5.91 µM)	0.78 (≈ 1.47 µM)	1.56 (≈ 2.95 µM)	1.56 (≈ 2.95 µM)	–
C#CCn1cc[n+](CC2=C(C(=O)[O-])N3C(=O)C(NC(=O)/C(=N\OC)c4csc(N)n4)C3SC2)c1 (stereo not drawn) [Compound G, 7-[2-(2-aminothiazole-4-yl)-2-methoxyiminoacetamide]-3-[3-(2-propynyl)-1-imidazoliomethyl]-3-cephem-4-carboxylate]	–	0.05 (≈ 0.0997 µM)	0.2 (≈ 0.399 µM)	0.78 (≈ 1.56 µM)	25 (≈ 49.8 µM)	6.25 (≈ 12.5 µM)	–	–	0.2 (≈ 0.399 µM)	1.56 (≈ 3.11 µM)	0.2 (≈ 0.399 µM)	0.1 (≈ 0.199 µM)	–
C=Cn1cc[n+](CC2=C(C(=O)[O-])N3C(=O)C(NC(=O)/C(=N\OC(C)(C)C(=O)O)c4csc(N)n4)C3SC2)c1 (stereo not drawn) [Compound M, 7-{2-(2-aminothiazole-4-yl)-2-[potassium(2,2-dimethylacetate)oxyimino]acetamide}-3-(3-vinyl-1-imidazoliomethyl)-3-cephem-4-carboxylate]	–	0.2	0.1	6.25	12.5	–	–	–	0.1	0.78	0.1	0.39	MIC (Pseudomonas aeruginosa; 20 h): 3.13 µg/mL
C=CCCn1c[n+](CC2=C(C(=O)[O-])N3C(=O)C(NC(=O)/C(=N\OC(C)(C)C(=O)O)c4csc(N)n4)C3SC2)c2ccccc21 (stereo not drawn) [Compound S, 7-{2-(2-aminothiazole-4-yl)-2-[potassium(2,2-dimethylacetate)oxyimino]acetamide}-3-[benz-3-N-(3-butenyl)-1-imidazoliomethyl]-3-cephem-4-carboxylate]	–	0.78	0.39	0.78	25	6.25	–	–	3.13	3.13	0.78	3.13	–
C#CCn1cc[n+](CC2=C(C(=O)[O-])N3C(=O)C(NC(=O)/C(=N\OCC=C)c4csc(N)n4)C3SC2)c1 (stereo not drawn) [D, 7-[2-(2-aminothiazole-4-yl)-2-(2-propenyloxyimino)acetamide]-3-[3-(2-propynyl)-1-imidazoliomethyl]-3-cephem-4-carboxylate]	1.56 (≈ 2.96 µM)	0.78 (≈ 1.48 µM)	0.78 (≈ 1.48 µM)	0.78 (≈ 1.48 µM)	12.5 (≈ 23.7 µM)	12.5 (≈ 23.7 µM)	3.13 (≈ 5.93 µM)	1.56 (≈ 2.96 µM)	–	–	–	0.78 (≈ 1.48 µM)	–
C=CCO/N=C(\C(=O)NC1C(=O)N2C(C(=O)[O-])=C(C[n+]3ccn(C)c3)CSC12)c1csc(N)n1 (stereo not drawn) [E, 7-[2-(2-aminothiazole-4-yl)-2-(2-propenyloxyimino)acetamide]-3-(3-methyl-1-imidazoliomethyl)-3-cephem-4-carboxylate]	0.78 (≈ 1.55 µM)	0.2 (≈ 0.397 µM)	0.05 (≈ 0.0993 µM)	0.78 (≈ 1.55 µM)	> 50	12.5 (≈ 24.8 µM)	1.56 (≈ 3.1 µM)	0.39 (≈ 0.774 µM)	–	–	–	–	MIC (Klebsiella pneumoniae; [7]): 0.02 µg/mL (≈ 0.0397 µM)
C=CCn1cc[n+](CC2=C(C(=O)[O-])N3C(=O)C(NC(=O)/C(=N\OC)c4csc(N)n4)C3SC2)c1 (stereo not drawn) [F, 7-[2-(2-aminothiazole-4-yl)-2-methoxyiminoacetamide]-3-[3-(2-propenyl)-1-imidazoliomethyl]-3-cephem-4-carboxylate]	–	0.1 (≈ 0.199 µM)	0.2 (≈ 0.397 µM)	6.25 (≈ 12.4 µM)	50 (≈ 99.3 µM)	25 (≈ 49.6 µM)	0.78 (≈ 1.55 µM)	–	0.39 (≈ 0.774 µM)	–	0.39 (≈ 0.774 µM)	0.1 (≈ 0.199 µM)	–
C=CCn1cc[n+](CC2=C(C(=O)[O-])N3C(=O)C(NC(=O)/C(=N\OC(C)(C)C(=O)O)c4csc(N)n4)C3SC2)c1 (stereo not drawn) [H, 7-{2-(2-aminothiazole-4-yl)-2-[potassium(2,2-dimethylacetate)oxyimino]acetamide}-3-[3-(2-propenyl)-1-imidazoliomethyl]-3-cephem-4-carboxylate]	0.2	0.2	0.1	5	6.25	3.12	0.78	0.1	–	–	–	–	MIC (Klebsiella pneumoniae; [7]): 0.78 µg/mL
CCCCCCn1cc[n+](CC2=C(C(=O)[O-])N3C(=O)C(NC(=O)/C(=N\OC(C)(C)C(=O)O)c4csc(N)n4)C3SC2)c1 (stereo not drawn) [J, 7-{2-(2-aminothiazole-4-yl)-2-[potassium(2,2-dimethylacetate)oxyimino]acetamide}-3-(3-n-hexyl-1-imidazoliomethyl)-3-cephem-4-carboxylate]	–	0.78	0.2	6.25	6.25	3.12	0.78	0.2	0.39	–	–	1.56	–
C#CCn1cc[n+](CC2=C(C(=O)[O-])N3C(=O)C(NC(=O)/C(=N\OC(C)(C)C(=O)O)c4csc(N)n4)C3SC2)c1 (stereo not drawn) [K, 7-{2-(2-aminothiazole-4-yl)-2-[potassium(2,2-dimethylacetate)oxyimino]acetamide}-3-[3-(2-propynyl)-1-imidazoliomethyl]-3-cephem-4-carboxylate]	0.39	–	0.39	12.5	0.39	–	–	0.39	–	0.78	–	0.78	MIC ([1]; Escherichia coli, NIHJJC2, 20 h): 0.2 µg/mL; MIC (Pseudomonas aeruginosa; 20 h): 3.13 µg/mL
Cn1c[n+](CC2=C(C(=O)[O-])N3C(=O)C(NC(=O)/C(=N\OC(C)(C)C(=O)O)c4csc(N)n4)C3SC2)c2ccccc21 (stereo not drawn) [L, 7-{2-(2-aminothiazole-4-yl)-2-[potassium(2,2-dimethylacetate)oxyimino]acetamide}-3-(benz-3-N-methyl-1-imidazoliomethyl)-3-cephem-4-carboxylate]	0.2	0.2	0.2	–	6.25	–	–	0.2	–	0.78	–	0.78	MIC ([3]; Staphylococcus aureus, 209P, 20 h): 1.56 µg/mL; MIC (Pseudomonas aeruginosa; 20 h): 3.13 µg/mL
CC(C)(O/N=C(\C(=O)NC1C(=O)N2C(C(=O)[O-])=C(C[n+]3ccn(C4CCCCC4)c3)CSC12)c1csc(N)n1)C(=O)O (stereo not drawn) [N, 7-{2-(2-aminothiazole-4-yl)-2-[potassium(2,2-dimethylacetate)oxyimino]acetamide}-3-(3-cyclohexyl-1-imidazoliomethyl)-3-cephem-4-carboxylate]	0.2	0.2	0.1	6.25	25	6.25	1.56	0.2	–	–	–	0.78	–
CC(C)(O/N=C(\C(=O)NC1C(=O)N2C(C(=O)[O-])=C(C[n+]3ccn(-c4ccc(O)cc4)c3)CSC12)c1csc(N)n1)C(=O)O (stereo not drawn) [O, 7-{2-(2-aminothiazole-4-yl)-2-[potassium(2,2-dimethylacetate)oxyimino]acetamide}-3-[3-(4-hydroxyphenyl)-1-imidazoliomethyl]-3-cephem-4-carboxylate]	–	0.2	0.1	6.25	25	6.25	–	–	0.2	0.78	0.1	0.78	–
